{
  "source": "patent US10472381B2",
  "about": "“Sialic acid derivatives” (Reinhard Brossmer, priority 2014, dated 2019)",
  "data": [
    {"biological_target": "T1, CD22 (Homo sapiens, UniProt P20273)", "T1 construct": "The soluble CD22 protein was expressed in the CHO-Lec1 cell line; made in house; host or cells: CHO-Lec1", "T1 sequence (P20273 20-687 limits assumed)": "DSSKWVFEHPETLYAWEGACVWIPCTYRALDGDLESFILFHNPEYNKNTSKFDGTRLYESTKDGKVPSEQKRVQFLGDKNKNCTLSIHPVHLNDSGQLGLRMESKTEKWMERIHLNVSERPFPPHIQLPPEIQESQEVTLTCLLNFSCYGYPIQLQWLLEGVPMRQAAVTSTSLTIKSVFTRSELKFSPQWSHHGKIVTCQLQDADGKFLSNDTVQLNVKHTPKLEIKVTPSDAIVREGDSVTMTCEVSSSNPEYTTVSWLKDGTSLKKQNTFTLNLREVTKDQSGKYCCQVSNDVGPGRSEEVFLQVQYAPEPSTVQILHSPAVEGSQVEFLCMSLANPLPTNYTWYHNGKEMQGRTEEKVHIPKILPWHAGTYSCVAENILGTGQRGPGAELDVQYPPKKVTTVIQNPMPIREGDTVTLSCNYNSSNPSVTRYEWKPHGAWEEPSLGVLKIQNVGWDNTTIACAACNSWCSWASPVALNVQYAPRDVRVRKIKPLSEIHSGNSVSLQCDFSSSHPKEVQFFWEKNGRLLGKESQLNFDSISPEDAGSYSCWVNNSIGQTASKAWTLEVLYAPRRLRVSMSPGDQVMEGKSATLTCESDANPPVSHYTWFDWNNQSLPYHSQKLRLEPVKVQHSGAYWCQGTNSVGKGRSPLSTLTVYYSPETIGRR", "assay": "ELISA-based inhibition assay: inhibition of binding of soluble CD22 to immobilized IgM", "details": "Table I; relative to reference BPCNeu5Ac (rIP = 1)", "procedure": "(§1) The biological activity of the substances was determined in an ELISA-based inhibition assay as described in “Eur. J. Immunol. 2012, 42, 2792-2802”. The sialic acid derivatives of the formula (I) inhibit the binding of soluble CD22 to immobilized IgM in proportion to their affinity for CD22. The soluble CD22 protein was expressed in the CHO-Lec1 cell line and isolated as described by “Eur. J. Immunol. 2012, 42, 2792-2802”. […] The increase in affinity is reported as rIP (relative inhibitory affinity).", "values": [
      {"molecule": "CC(=O)N[C@H]1[C@H]([C@H](O)[C@H](O)CNC(=O)c2ccc(-c3ccc(F)cc3)cc2)O[C@@](OCCCCCC(=O)[O-])(C(=O)[O-])C[C@@H]1NS(=O)(=O)[O-].[Na+].[Na+].[Na+]", "note": "[Compound 37]", "rIP (relative inhibitory potency)": 405},
      {"molecule": "CC(=O)N[C@H]1[C@H]([C@H](O)[C@H](O)CNC(=O)c2ccc(-c3ccccc3)cc2)O[C@@](OCCCSCCC(=O)[O-])(C(=O)[O-])C[C@@H]1OS(=O)(=O)[O-].[Na+].[Na+].[Na+]", "note": "[Compound 20]", "rIP (relative inhibitory potency)": 3130},
      {"molecule": "CC(=O)N[C@H]1[C@H]([C@H](O)[C@H](O)CNC(=O)c2ccc(-c3ccccc3)cc2)O[C@@](OCCCCCC(=O)[O-])(C(=O)[O-])C[C@@H]1NS(=O)(=O)[O-].[Na+].[Na+].[Na+]", "note": "[Compound 15]", "rIP (relative inhibitory potency)": 1920}
    ]},
    {"biological_target": "T1, CD22", "assay": "ELISA-based inhibition assay: inhibition of binding of soluble CD22 to immobilized IgM", "details": "Table I; soluble CD22 binding to immobilized IgM", "procedure": "as §1", "units": {"IC50": "nM"}, "values": [
      {"molecule": "CC(=O)N[C@H]1[C@H]([C@H](O)[C@H](O)CNC(=O)c2ccc(-c3ccc(F)cc3)cc2)O[C@@](OCCCCCC(=O)[O-])(C(=O)[O-])C[C@@H]1NS(=O)(=O)[O-].[Na+].[Na+].[Na+]", "note": "[Compound 37]", "IC50": 15},
      {"molecule": "CC(=O)N[C@H]1[C@H]([C@H](O)[C@H](O)CNC(=O)c2ccc(-c3ccccc3)cc2)O[C@@](OCCCSCCC(=O)[O-])(C(=O)[O-])C[C@@H]1OS(=O)(=O)[O-].[Na+].[Na+].[Na+]", "note": "[Compound 20]", "IC50": 2},
      {"molecule": "CC(=O)N[C@H]1[C@H]([C@H](O)[C@H](O)CNC(=O)c2ccc(-c3ccccc3)cc2)O[C@@](OCCCCCC(=O)[O-])(C(=O)[O-])C[C@@H]1NS(=O)(=O)[O-].[Na+].[Na+].[Na+]", "note": "[Compound 15]", "IC50": 3.2},
      {"molecule": "CCC(=O)N[C@@H]1[C@@H](NC(C)=O)[C@H]([C@H](O)[C@H](O)CNC(=O)c2ccc(-c3ccccc3)cc2)O[C@@](OCCCCCC(=O)O)(C(=O)O)[C@H]1O", "note": "[Compound 10]", "IC50": 6}
    ]},
    {"biological_target": "T1, CD22", "assay": "ELISA-based inhibition assay: inhibition of binding of soluble CD22 to immobilized IgM", "details": "Table II; relative to reference compound 10 co-tested in the same assay (rIP = 1)", "procedure": "as §1", "values": [
      {"molecule": "CC(=O)N[C@@H]1[C@@H](NC(=O)c2ccccc2C)[C@H](O)[C@](OCCCCCC(=O)[O-])(C(=O)[O-])O[C@H]1[C@H](O)[C@H](O)CNC(=O)c1ccc(-c2ccccc2)cc1.[Na+].[Na+]", "note": "[Compound 51]", "rIP": 0.13},
      {"molecule": "CC(=O)N[C@@H]1[C@@H](NC(=O)CCl)[C@H](O)[C@](OCCCCCC(=O)[O-])(C(=O)[O-])O[C@H]1[C@H](O)[C@H](O)CNC(=O)c1ccc(-c2ccccc2)cc1.[Na+].[Na+]", "note": "[Compound 41]", "rIP": 0.37},
      {"molecule": "CC(=O)N[C@@H]1[C@@H](NC(=O)CF)[C@H](O)[C@](OCCCCCC(=O)[O-])(C(=O)[O-])O[C@H]1[C@H](O)[C@H](O)CNC(=O)c1ccc(-c2ccccc2)cc1.[Na+].[Na+]", "note": "[Compound 43]", "rIP": 0.25},
      {"molecule": "CC(=O)N[C@@H]1[C@@H](NC(=O)C(C)C)[C@H](O)[C@](OCCCCCC(=O)[O-])(C(=O)[O-])O[C@H]1[C@H](O)[C@H](O)CNC(=O)c1ccc(-c2ccccc2)cc1.[Na+].[Na+]", "note": "[Compound 39]", "rIP": 0.70},
      {"molecule": "CC(=O)N[C@@H]1[C@@H](NC(=O)c2ccccc2Cl)[C@H](O)[C@](OCCCCCC(=O)[O-])(C(=O)[O-])O[C@H]1[C@H](O)[C@H](O)CNC(=O)c1ccc(-c2ccccc2)cc1.[Na+].[Na+]", "note": "[Compound 52]", "rIP": 0.12},
      {"molecule": "CC(=O)N[C@@H]1[C@@H](NS(=O)(=O)c2cccc3c(N(C)C)cccc23)[C@H](O)[C@](OCCCCCC(=O)[O-])(C(=O)[O-])O[C@H]1[C@H](O)[C@H](O)CNC(=O)c1ccc(-c2ccccc2)cc1.[Na+].[Na+]", "note": "[Compound 65]", "rIP": 0.17}
    ]},
    {"biological_target": "T1, CD22", "assay": "ELISA-based inhibition assay: inhibition of binding of soluble CD22 to immobilized IgM", "details": "Table III; relative to reference compound 17 co-tested in the same assay (rIP = 1)", "procedure": "as §1", "values": [
      {"molecule": "CC(=O)N[C@H]1[C@H]([C@H](O)[C@H](O)CNC(=O)c2ccc(-c3ccccc3)cc2)O[C@@](OCCCCCC(=O)[O-])(C(=O)[O-])C[C@@H]1NC(=O)c1ccc(F)cc1.[Na+].[Na+]", "note": "[Compound 60]", "rIP": 2.1},
      {"molecule": "CC(=O)N[C@H]1[C@H]([C@H](O)[C@H](O)CNC(=O)c2ccc(-c3ccccc3)cc2)O[C@@](OCCCCCC(=O)[O-])(C(=O)[O-])C[C@@H]1NC(=O)c1ccc(C)cc1.[Na+].[Na+]", "note": "[Compound 59]", "rIP": 0.24},
      {"molecule": "CC(=O)N[C@H]1[C@H]([C@H](O)[C@H](O)CNC(=O)c2ccc(-c3ccccc3)cc2)O[C@@](OCCCCCC(=O)[O-])(C(=O)[O-])C[C@@H]1NC(=O)c1ccco1.[Na+].[Na+]", "note": "[Compound 57]", "rIP": 6.1}
    ]},
    {"biological_target": "T1, CD22", "assay": "ELISA-based inhibition assay: inhibition of binding of soluble CD22 to immobilized IgM", "details": "Table IV; relative to reference compound 66 co-tested in the same assay (rIP = 1)", "procedure": "as §1", "values": [
      {"molecule": "CC(=O)N[C@H]1[C@H]([C@H](O)[C@H](O)CNC(=O)c2cnc(-c3ccccc3)nc2)O[C@@](OCCCCCC(=O)[O-])(C(=O)[O-])C[C@@H]1NC(=O)OCc1ccccc1.[Na+].[Na+]", "note": "[Compound 73]", "rIP": 0.23},
      {"molecule": "CC(=O)N[C@H]1[C@H]([C@H](O)[C@H](O)CNC(=O)c2ccc(-c3ccc(O)cc3)cc2)O[C@@](OCCCCCC(=O)[O-])(C(=O)[O-])C[C@@H]1NC(=O)OCc1ccccc1.[Na+].[Na+]", "note": "[Compound 67]", "rIP": 1.0},
      {"molecule": "CC(=O)N[C@H]1[C@H]([C@H](O)[C@H](O)CNC(=O)Cc2ccc3ccccc3c2)O[C@@](OCCCCCC(=O)[O-])(C(=O)[O-])C[C@@H]1NC(=O)OCc1ccccc1.[Na+].[Na+]", "note": "[Compound 72]", "rIP": 0.91},
      {"molecule": "CC(=O)N[C@H]1[C@H]([C@H](O)[C@H](O)CNC(=O)c2ccc(-c3cccs3)s2)O[C@@](OCCCCCC(=O)[O-])(C(=O)[O-])C[C@@H]1NC(=O)OCc1ccccc1.[Na+].[Na+]", "note": "[Compound 71]", "rIP": 0.28},
      {"molecule": "CC(=O)N[C@H]1[C@H]([C@H](O)[C@H](O)CNC(=O)c2cccc3ccccc23)O[C@@](OCCCCCC(=O)[O-])(C(=O)[O-])C[C@@H]1NC(=O)OCc1ccccc1.[Na+].[Na+]", "note": "[Compound 76]", "rIP": 0.35}
    ]}
  ]
}
